Experimental data reported in patent publication US9434763B2, “Derivatives of pyridinone as inhibitors for tissue transglutaminase” (ZEDIRA GMBH, priority 2012, dated 2016).

Molecular target: T1, His tagged recombinant human tissue transglutaminase (His6-rh-TG2) (Homo sapiens, UniProt P21980)
T1 construct: purchased Zedira T002
T1 sequence (P21980 1-687): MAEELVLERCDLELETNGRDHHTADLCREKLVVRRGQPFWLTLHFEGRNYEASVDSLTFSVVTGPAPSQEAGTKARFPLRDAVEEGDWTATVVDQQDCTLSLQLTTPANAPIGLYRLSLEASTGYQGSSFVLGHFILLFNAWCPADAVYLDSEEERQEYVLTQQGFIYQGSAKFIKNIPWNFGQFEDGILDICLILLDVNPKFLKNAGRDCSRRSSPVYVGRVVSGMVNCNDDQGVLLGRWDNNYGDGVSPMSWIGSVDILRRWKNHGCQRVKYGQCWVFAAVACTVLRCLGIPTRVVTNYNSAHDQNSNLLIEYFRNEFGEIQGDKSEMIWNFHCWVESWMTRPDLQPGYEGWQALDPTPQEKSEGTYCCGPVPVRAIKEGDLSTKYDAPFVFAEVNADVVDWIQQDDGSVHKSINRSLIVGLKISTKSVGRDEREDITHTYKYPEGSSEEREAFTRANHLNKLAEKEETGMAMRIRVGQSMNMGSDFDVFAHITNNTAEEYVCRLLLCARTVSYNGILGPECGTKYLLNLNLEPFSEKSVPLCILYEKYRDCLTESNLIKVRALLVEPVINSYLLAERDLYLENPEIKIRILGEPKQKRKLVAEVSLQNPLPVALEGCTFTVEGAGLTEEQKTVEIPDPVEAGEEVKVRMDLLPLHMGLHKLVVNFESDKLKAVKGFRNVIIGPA
Test: Inactivation of human tissue transglutaminase, fluorescence assay with Abz-APE(CAD-DNP)QEA-OH
Format: biochemical
Conditions: substrate Abz-APE(CAD-DNP)QEA-OH, 37° C., pH=7.5
Method: General Method for Inactivation of Human Tissue Transglutaminase
250 μg lyophilized His tagged recombinant human tissue transglutaminase (His6-rh-TG2, Zedira product T002) are reconstituted by adding 150 μl water (resulting buffer 50 mM NaH2PO4, 150 mM NaCl, pH=8.0).
A 10 mM inhibitor stock solution in DMSO is prepared and is diluted with buffer (50 mM Tris-HCl, 10 mM CaCl2, 5 mM DTT, pH=7.5) each to the twentyfold of the concentration desired in the preparation (but at least 1/50 dilution resulting in a 2% DMSO concentration).
900 μl of an assay-solution consisting of 55.56 mM Tris, 11.11 mM CaCl2, 0.11% PEG8000, 5.56 mM DTT, 5.56 mM glycine methyl ester and 50 μM Abz-APE(CAD-DNP)QEA-OH, (Zedira product A102; patent No.: EP 1781807B1), pH=7.5 are added to a cuvette and heated in a measuring cell of a spectrophotometer to 37° C. 50 μl of the particular inhibitor solution are added to this solution (resulting in a concentration of less than 0.2% DMSO in the mixture).
7 μl of the transglutaminase solution reconstituted above are diluted with 51 μl buffer (50 mM Tris, 100 mM NaCl, 5 mM DTT, pH=7.5). 50 μl of this enzyme solution (10 μg His6-rhTG2) are added to the assay-solution containing the particular inhibitor concentration. It is incubated 5 min at 37° C. before measuring starts (λexc=313 nm and λem=418 nm, t=15 to 30 min).
The evaluation of the resulting enzyme activity is done using the slope of the straight line obtained by the increase in fluorescence.
To determine the non-inhibited enzyme activity, DMSO instead of inhibitor stock solution is used. IC50 values are determined by plotting the resulting enzyme activity against the logarithm of the inhibitor concentration. IC50 is defined as the concentration of inhibitor resulting in 50% of enzyme activity.

Compound | IC50 [nM]
CCOC(=O)/C=C/CC[C@H](NC(=O)c1ccsc1)C(=O)Nc1cccn(CC(=O)NCCC(C)C)c1=O [A12, (S,E)-Ethyl 7-(1-(2-(isopentylamino)-2-oxoethyl)-2-oxo-1,2-dihydropyridin-3-ylamino)-7-oxo-6-(thiophene-3-carboxamido)hept-2-enoate] | 84
CCOC(=O)/C=C/CC[C@H](NC(=O)c1cccnc1)C(=O)Nc1cccn(CC(=O)NCCC(C)C)c1=O [A16, (S,E)-Ethyl 7-(1-(2-(isopentylamino)-2-oxoethyl)-2-oxo-1,2-dihydropyridin-3-ylamino)-6-(nicotinamido)-7-oxohept-2-enoate] | 104
CCOC(=O)/C=C/CC[C@H](NC(=O)c1ccccc1)C(=O)Nc1cccn(CC(=O)NCCC(C)C)c1=O [A10, (S,E)-Ethyl 6-benzamido-7-(1-(2-(isopentylamino)-2-oxoethyl)-2-oxo-1,2-dihydropyridin-3-ylamino)-7-oxohept-2-enoate] | 73
CCOC(=O)/C=C/CC[C@H](NC(=O)OCc1ccccc1)C(=O)Nc1cccn(CC(=O)NCCC(C)C)c1=O [A3, (S,E)-Ethyl 6-(benzyloxycarbonylamino)-7-(1-(2-(isopentylamino)-2-oxoethyl)-2-oxo-1,2-dihydropyridin-3-ylamino)-7-oxohept-2-enoate] | 96
CCOC(=O)/C=C/CC[C@H](NS(=O)(=O)c1ccoc1)C(=O)Nc1cccn(CC(=O)NCCC(C)C)c1=O [A13, (S,E)-Ethyl 6-(furan-3-sulfonamido)-7-(1-(2-(isopentylamino)-2-oxoethyl)-2-oxo-1,2-dihydropyridin-3-ylamino)-7-oxohept-2-enoate] | 83
CCOC(=O)/C=C/CC[C@H](NS(=O)(=O)c1ccc(O)c(C(=O)O)c1)C(=O)Nc1cccn(CC(=O)NCCC(C)C)c1=O [A23, (S,E)-5-(N-(7-Ethoxy-1-(1-(2-(isopentylamino)-2-oxoethyl)-2-oxo-1,2-dihydropyridin-3-ylamino)-1,7-dioxohept-5-en-2-yl)sulfamoyl)-2-hydroxybenzoic acid] | 475
CCOC(=O)/C=C/CC[C@H](NC(C)=O)C(=O)Nc1cccn(CC(=O)N[C@H](CC(C)C)C(=O)OC)c1=O [A33, (S,E)-Ethyl 6-acetamido-7-(1-(2-((R)-1-methoxy-4-methyl-1-oxopentan-2-ylamino)-2-oxoethyl)-2-oxo-1,2-dihydropyridin-3-ylamino)-7-oxohept-2-enoate] | 493
CCOC(=O)/C=C/CC[C@H](NC(C)=O)C(=O)Nc1cccn(CC(=O)NCCC(C)(C)C)c1=O [A39, (S,E)-Ethyl 6-acetamido-7-(1-(2-(3,3-dimethylbutylamino)-2-oxoethyl)-2-oxo-1,2-dihydropyridin-3-ylamino)-7-oxohept-2-enoate] | 115
CCOC(=O)/C=C/CC[C@H](NC(=O)OCc1ccccc1)C(=O)Nc1cccn(CC(=O)NCCc2c(C)cc(C)cc2C)c1=O [A1, (S,E)-Ethyl 6-(benzyloxycarbonylamino)-7-oxo-7-(2-oxo-1-(2-oxo-2-(2,4,6-trimethylphenethylamino)ethyl)-1,2-dihydropyridin-3-ylamino)hept-2-enoate] | 100
CCOC(=O)/C=C/CC[C@H](NC(C)=O)C(=O)Nc1cccn(CC(=O)N2CCCC(C)C2)c1=O (stereo partly drawn) [A52, (6S,E)-Ethyl 6-acetamido-7-(1-(2-(3-methylpiperidin-1-yl)-2-oxoethyl)-2-oxo-1,2-dihydropyridin-3-ylamino)-7-oxohept-2-enoate] | 700
CCOC(=O)/C=C/CC[C@H](NC(C)=O)C(=O)Nc1cccn(CC(=O)NCCN(CC)CC)c1=O [A25, (S,E)-Ethyl 6-acetamido-7-(1-(2-(2-(diethylamino)ethylamino)-2-oxoethyl)-2-oxo-1,2-dihydropyridin-3-ylamino)-7-oxohept-2-enoate] | 4800
CCOC(=O)/C=C/CC[C@H](NC(=O)c1ccc(N2CCCCC2)cc1)C(=O)Nc1cccn(CC(=O)NCCC(C)C)c1=O [A18, (S,E)-Ethyl 7-(1-(2-(isopentylamino)-2-oxoethyl)-2-oxo-1,2-dihydropyridin-3-ylamino)-7-oxo-6-(4-(piperidin-1-yl)benzamido)hept-2-enoate] | 175
CCOC(=O)/C=C/CC[C@H](NC(=O)CCC(=O)O)C(=O)Nc1cccn(CC(=O)N[C@H](C(=O)OC)[C@H](C)CC)c1=O [A36, 4-((S,E)-7-Ethoxy-1-(1-(2-((2S,3R)-1-methoxy-3-methyl-1-oxopentan-2-ylamino)-2-oxoethyl)-2-oxo-1,2-dihydropyridin-3-ylamino)-1,7-dioxohept-5-en-2-ylamino)-4-oxobutanoic acid] | 88
CCOC(=O)/C=C/CC[C@H](NC(=O)CCC(=O)O)C(=O)Nc1cccn(CC(=O)NCC(C)CC)c1=O (stereo partly drawn) [A51, 4-((2S,E)-7-Ethoxy-1-(1-(2-(2-methylbutylamino)-2-oxoethyl)-2-oxo-1,2-dihydropyridin-3-ylamino)-1,7-dioxohept-5-en-2-ylamino)-4-oxobutanoic acid] | 166
CCOC(=O)/C=C/CC[C@H](NC(C)=O)C(=O)Nc1cccn(CC(=O)NCCN2CCCC2)c1=O [A46, (S,E)-Ethyl 6-acetamido-7-oxo-7-(2-oxo-1-(2-oxo-2-(2-(pyrrolidin-1-yl)ethylamino)ethyl)-1,2-dihydropyridin-3-ylamino)hept-2-enoate] | 3300
CCOC(=O)/C=C/CC[C@H](NC(=O)CCC(=O)O)C(=O)Nc1cccn(CC(=O)NCc2ccccc2C(F)(F)F)c1=O [A44, (S,E)-4-(7-Ethoxy-1,7-dioxo-1-(2-oxo-1-(2-oxo-2-(2-(trifluoromethyl)benzylamino)ethyl)-1,2-dihydropyridin-3-ylamino)hept-5-en-2-ylamino)-4-oxobutanoic acid] | 240
COC(=O)/C=C/CC[C@H](NC(C)=O)C(=O)Nc1cccn(CC(=O)N2CCCC(C(F)(F)F)C2)c1=O (stereo partly drawn) [A66, (6S,E)-Methyl 6-acetamido-7-oxo-7-(2-oxo-1-(2-oxo-2-(3-(trifluoromethyl)piperidin-1-yl)ethyl)-1,2-dihydropyridin-3-ylamino)hept-2-enoate] | 310
CCOC(=O)/C=C/CC[C@H](NC(=O)c1ccc(N2CCN(C)CC2)cc1)C(=O)Nc1cccn(CC(=O)NCCC(C)C)c1=O [A20, (S,E)-Ethyl 7-(1-(2-(isopentylamino)-2-oxoethyl)-2-oxo-1,2-dihydropyridin-3-ylamino)-6-(4-(4-methylpiperazin-1-yl)benzamido)-7-oxohept-2-enoate] | 202
CCOC(=O)/C=C/CC[C@H](NC(C)=O)C(=O)Nc1cccn(CC(=O)NCC(C)CC)c1=O (stereo partly drawn) [A50, (6S,E)-Ethyl 6-acetamido-7-(1-(2-(2-methylbutylamino)-2-oxoethyl)-2-oxo-1,2-dihydropyridin-3-ylamino)-7-oxohept-2-enoate] | 119
CCOC(=O)/C=C/CC[C@H](NC(C)=O)C(=O)Nc1cccn(CC(=O)N[C@@H](CC(C)(C)C)C(=O)OC)c1=O [A40, (S,E)-Ethyl 6-acetamido-7-(1-(2-((S)-1-methoxy-4,4-dimethyl-1-oxopentan-2-ylamino)-2-oxoethyl)-2-oxo-1,2-dihydropyridin-3-ylamino)-7-oxohept-2-enoate] | 131
CCC(CC)CNC(=O)Cn1cccc(NC(=O)[C@H](CC/C=C/C(=O)OC)NC(=O)CN)c1=O [A69, (S,E)-Methyl 6-(2-aminoacetamido)-7-(1-(2-(2-ethybutylamino)-2-oxoethyl)-2-oxo-1,2-dihydropyridin-3-ylamino)-7-oxohept-2-enoate 2,2,2-trifluoroacetate] | 71
CCOC(=O)/C=C/CC[C@H](NC(=O)c1cccnc1)C(=O)Nc1ccc(C)n(CC(=O)NCCc2ccccc2)c1=O [A8, (S,E)-Ethyl 7-(6-methyl-2-oxo-1-(2-oxo-2-(phenethylamino)ethyl)-1,2-dihydropyridin-3-ylamino)-6-(nicotinamido)-7-oxohept-2-enoate] | 251
